The target in one test is T1, M4 muscarinic receptor (Homo sapiens, UniProt P08173).
T1 construct: expressed in transfected cells; host or cells: CHO (M4-CHO recombinant cell line)
T1 sequence (P08173 1-479): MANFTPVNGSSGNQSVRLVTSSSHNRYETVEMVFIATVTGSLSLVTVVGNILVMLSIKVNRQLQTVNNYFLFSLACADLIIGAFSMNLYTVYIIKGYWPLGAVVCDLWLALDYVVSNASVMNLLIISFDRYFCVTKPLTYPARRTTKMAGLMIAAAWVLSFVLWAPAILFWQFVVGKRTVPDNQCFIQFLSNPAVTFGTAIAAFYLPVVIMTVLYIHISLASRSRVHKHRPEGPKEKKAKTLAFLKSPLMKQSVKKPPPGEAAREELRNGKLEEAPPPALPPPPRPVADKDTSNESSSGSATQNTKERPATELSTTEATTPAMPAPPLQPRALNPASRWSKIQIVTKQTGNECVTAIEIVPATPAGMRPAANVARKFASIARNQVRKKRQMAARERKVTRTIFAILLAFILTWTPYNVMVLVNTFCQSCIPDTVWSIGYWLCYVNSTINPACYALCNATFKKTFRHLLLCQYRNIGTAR
Put plainly: Functional mobilization of intracellular calcium (FLIPR) in CHO cells expressing M4 muscarinic receptor. The following applies: for Emax: CHO, 100% efficacy is the maximum response obtained with the Carbachol control; for M4 Activity: CHO cells expressing M4, calcium mobilization. Type of test: cell-based. As to the method: (§1) VI. Assays for Detecting and Measuring Inhibition Properties of Compounds Functional Mobilization of Intracellular Calcium to Determine Muscarinic Receptor Activity:
(§2) CHO cells expressing muscarinic receptors (M1 to M5) are grown as monolayers in tissue culture flasks at 37° C. in a humidified atmosphere containing 5% CO2 and passaged every 3-5 days. The growth media is Dulbecco's modified eagles medium (DMEM, Gibco Cat# 12430-054), containing 25 mM Hepes and supplemented with Fetal Bovine Serum (Hyclone, cat# SH30071.03), 0.1 mM of MEM non-essential amino acids (GIBCO, Cat# 11140-050), 1 mM MEM Sodium Pyruvate (GIBCO Cat# 11360-070) and 100 units/ml of Penicillin G and 100 μg/ml of Streptomycin (GIBCO Cat# 15140-122). The recombinant muscarinic receptor cell lines are grown under antibiotic pressure with media containing 25 μg/ml zeocin and 500 μg/ml G418 (M1-CHO), 4 μg/ml puromycin, 50 μg/ml zeocin and 2.5 μg/ml blasticidin (M2 and M4-CHO) or 50 μg/ml zeocin and 4 μg/ml puromycin (M3 and M5-CHO).
(§3) Cells are harvested at 80-90% confluence using Versene (GIBCO Cat# 15040-066), collected by centrifugation and seeded 18-24 hours prior to running the calcium assay at a density of 5,000-10,000 cells/well in […], clear-bottomed 384-well plates (BD Biocoat, poly-D-lysine, Cat#356663). The day of the experiment, the cells are washed with a plate washer (Bioteck Instruments, ELX 405) using bath buffer (140-mM NaCl, 4.5-mM KCl, 2-mM CaCl2, 1-mM MgCl2, 10-mM Hepes-Na, 10-mM Glucose, pH 7.4, with NaOH) containing 1 mM Probenecid. Next, the calcium dye Fluo-3 (25 μl/well of Fluo-3 μM at 4 μM, Molecular Probes F-1241, in Bath 1 buffer containing 1 mM Probenecid) is added to the 25 μl of Bath 1 remaining in each well after the plate wash and the dye is loaded at 37° C. in the tissue culture incubator for 60-90 min. The fluorescent dye is removed using the plate washer with Bath 1 containing 1 mM Probenecid, leaving 25 μl/well of this solution after the wash. Alternatively, cells can be loaded with the calcium indicator from Molecular Devices (Calcium 3 Assay Reagents, Cat # R7181) adding 5 μl of a 5× solution dye in Bath 1 containing 1 mM Probenecid (10 ml per dye flask cat# R7182 to generate a solution 20×) to 20 μl of the same buffer. After loading for 60 min, the experiment can be run without having to remove the dye.
(§4) Compounds are prepared at a 2× fold concentration in a 96-well plate (round bottom, Costar Corning cat# 3656), by reconstituting the pre-spotted compounds in bath 1 containing 1 mM probenecid. The final concentration DMSO is 0.5%, and the amount of DMSO is normalized across the assay plate. To determine an agonist action of the compounds on muscarinic receptors, the reconstituted compounds are added (25 μl compound/well) to the cell assay plate (containing 25 μl/well) using the multi-channel robotic system of the FLIPR 3 Instrument (Molecular Devices, Sunnyvale, Calif.). To determine a functional inhibitory-action of the compounds on muscarinic receptors, the reconstituted compounds are added (25 μl compound/well) to the assay plate and pre-incubated for 15 min prior to adding 25 μl of Carbachol at 3× the EC80 for each muscarinic subtype. Alternatively, the compounds can be co-applied simultaneously with the agonist. In both assay modes, the fluorescence is recorded for 60 sec (excitation wavelength is […] and emission wavelength 540 nm) using the FLIPR 3 instrument.
(§5) The potency, efficacy and selectivity of the muscarinic compounds were evaluated by screening the compound activity across the whole family (M1 to M5 cells). Compounds were also screened for activity on other proteins such as other GPCRs and ion channels to determine selectivity on M4 receptors.
(§6) Examples of activities and efficacies of the muscarinic compounds of formulae (I, Ia, and Ib) on modulating M1 and M4 receptors are shown below in Table 8. […]
Background: Calcium flux is commonly read through the fluorescence of an indicator in the cells.

Another test deals with T2, M1 muscarinic receptor (Homo sapiens, UniProt P11229).
T2 construct: expressed in transfected cells; host or cells: CHO (M1-CHO recombinant cell line)
T2 sequence (P11229 1-460): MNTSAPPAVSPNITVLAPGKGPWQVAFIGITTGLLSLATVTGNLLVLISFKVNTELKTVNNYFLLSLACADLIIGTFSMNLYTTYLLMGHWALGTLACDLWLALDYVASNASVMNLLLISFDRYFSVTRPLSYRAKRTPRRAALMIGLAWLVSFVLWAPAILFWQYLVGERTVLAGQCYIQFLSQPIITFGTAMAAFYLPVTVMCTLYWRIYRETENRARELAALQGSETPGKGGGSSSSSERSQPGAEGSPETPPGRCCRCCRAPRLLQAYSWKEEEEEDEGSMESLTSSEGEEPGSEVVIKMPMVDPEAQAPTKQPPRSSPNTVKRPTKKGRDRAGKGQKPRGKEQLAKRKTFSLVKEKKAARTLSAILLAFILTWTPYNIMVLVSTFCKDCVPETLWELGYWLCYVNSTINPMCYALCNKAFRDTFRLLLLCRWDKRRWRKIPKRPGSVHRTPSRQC
The test is described as follows: Functional mobilization of intracellular calcium (FLIPR) in CHO cells expressing M1 muscarinic receptor. The conditions noted are these: for Emax: CHO, 100% efficacy is the maximum response obtained with the Carbachol control; for M1 Activity: CHO cells expressing M1, calcium mobilization. The test is classed as cell-based. As to the method: as §1, §2, §3, §4, §5, §6

The term Emax denotes the maximal effect, on the per cent scale that the assay sets. Take `CCC(CC)NC(=O)C1=CC2(CCN(C3C[C@@H]4CC[C@@H]3C4)CC2)c2ccccc21` (stereo in doubt) [Compound No. 14, 1′-(bicyclo[2.2.1]heptan-2-yl)-N-(pentan-3-yl)spiro[indene-1,4′-piperidine]-3-carboxamide]: the results for the Emax on M4 muscarinic receptor and at M1 muscarinic receptor were 25 to 100% and less than 25%, respectively.
For the molecule `CNC(=O)C1=CC2(CCN(C3C[C@@H]4CC[C@@H]3C4)CC2)c2ccccc21` (stereo in doubt) [Compound No. 38, 1′-(bicyclo[2.2.1]heptan-2-yl)-N-methylspiro[indene-1,4′-piperidine]-3-carboxamide], at M4 muscarinic receptor, the “M4 Activity” value was “+++ (activity was measured to be less than 2.0 μM)” and the Emax was in the range of 25 to 100%. Further, on M1 muscarinic receptor, the “M1 Activity” value is reported as “+ (activity was measured to be greater than 10.0 μM)” and the Emax is 25 to 100%.
For the molecule `O=C(O)C1=CC2(CCN(C3C[C@@H]4CC[C@@H]3C4)CC2)c2ccccc21` (stereo in doubt) [Compound No. 48, 1′-(bicyclo[2.2.1]heptan-2-yl)spiro[indene-1,4′-piperidine]-3-carboxylic acid], on M4 muscarinic receptor, the “M4 Activity” value was “+ (activity was measured to be greater than 10.0 μM)” and the Emax lay within 25 to 100%. Further, at M1 muscarinic receptor, the “M1 Activity” value was “+ (activity was measured to be greater than 10.0 μM)” and the Emax is 25 to 100%.
`CCC(CC)NC(=O)C1=CC2(CCN(C3CCCCCC3)CC2)c2ccccc21` [Compound No. 3]: on M4 muscarinic receptor, the “M4 Activity” value is “++ (activity was measured to be from 2.0 μM to 10.0 μM)” and the Emax was 25 to 100%. Further, on M1 muscarinic receptor, the “M1 Activity” value is listed as “+ (activity was measured to be greater than 10.0 μM)” and the Emax was less than 25%.
The like results for `CNC(=O)C1=CC2(CCN(CC3CCCCC3)CC2)c2ccccc21` [Compound No. 6] were, in that order, “+++ (activity was measured to be less than 2.0 μM)”, 25 to 100%, “+ (activity was measured to be greater than 10.0 μM)” and 25 to 100%.
`CC(C)(C)CCN1CCC2(C=C(C(=O)O)c3ccccc32)CC1` [Compound No. 20, 1′-(3,3-dimethylbutyl)spiro[indene-1,4′-piperidine]-3-carboxylic acid]: on M4 muscarinic receptor, the “M4 Activity” value is reported as “+++ (activity was measured to be less than 2.0 μM)” and the Emax was less than 25%. In addition, at M1 muscarinic receptor, the “M1 Activity” value is “+ (activity was measured to be greater than 10.0 μM)” and the Emax was less than 25%.
Regarding `CNC(=O)C1=CC2(CCN(CCC(C)(C)C)CC2)c2ccccc21` [Compound No. 27, 1′-(3,3-dimethylbutyl)-N-methylspiro[indene-1,4′-piperidine]-3-carboxamide], on M4 muscarinic receptor, the “M4 Activity” value is recorded as “+++ (activity was measured to be less than 2.0 μM)” and the maximal response (Emax) fell in the range of 25 to 100%. In addition, at M1 muscarinic receptor, the “M1 Activity” value is “+++ (activity was measured to be less than 2.0 μM)” and the Emax was in the range of 25 to 100%.
As to `CC(C)(C)CCN1CCC2(C=C(C(=O)N3CCCCC3)c3ccccc32)CC1` [Compound No. 37], on M4 muscarinic receptor, the “M4 Activity” value was “+++ (activity was measured to be less than 2.0 μM)” and the maximum response (Emax) fell in the range of 25 to 100%. In addition, at M1 muscarinic receptor, the “M1 Activity” value is recorded as “+++ (activity was measured to be less than 2.0 μM)” and the Emax lay within 25 to 100%.
Consider `CCC(CC)NC(=O)C1=CC2(CCN(CC3CCCCC3)CC2)c2ccccc21` [Compound No. 68, 1′-(cyclohexylmethyl)-N-(pentan-3-yl)spiro[indene-1,4′-piperidine]-3-carboxamide], for which the Emax at M4 muscarinic receptor was 25 to 100%; on M1 muscarinic receptor it was less than 25%.
Consider `CCOC(=O)N1CCC(N2CCC3(CC=C(C(=O)N(C)C)c4ccccc43)CC2)CC1` [compound 4, ethyl 4-(4-(dimethylcarbamoyl)-2H-spiro[naphthalene-1,4′-piperidine]-1′-yl)piperidine-1-carboxylate], for which, at M4 muscarinic receptor, the “M4 Activity” value is “+++ (activity was measured to be less than 2.0 μM)” and the Emax lay within 25 to 100%. For the same molecule, at M1 muscarinic receptor, the “M1 Activity” value is “+++ (activity was measured to be less than 2.0 μM)” and the maximal response (Emax) lay within 25 to 100%.
Take `CCOC(=O)N1C2CCC1CC(N1CCC3(CC=C(C(=O)N4CCCC4)c4ccccc43)CC1)C2` (centres unmarked) [compound 5]: at M4 muscarinic receptor, the “M4 Activity” value was “+++ (activity was measured to be less than 2.0 μM)” and the Emax was in the range of 25 to 100%. For the same molecule, on M1 muscarinic receptor, the “M1 Activity” value is reported as “+++ (activity was measured to be less than 2.0 μM)” and the Emax is 25 to 100%.
Take `CCC(CC)NC(=O)C1=CC2(CCN(C3CCNCC3)CC2)c2ccccc21` [compound 7]: on M4 muscarinic receptor, the “M4 Activity” value is recorded as “+ (activity was measured to be greater than 10.0 μM)” and the Emax is less than 25%. On M1 muscarinic receptor, the “M1 Activity” value was “+ (activity was measured to be greater than 10.0 μM)” and the Emax was less than 25%.
In the case of `CNC(=O)C1=CC2(CCN(CCC3CCOCC3)CC2)c2ccccc21` [compound 8], at M4 muscarinic receptor, the “M4 Activity” value is “+ (activity was measured to be greater than 10.0 μM)” and the Emax was less than 25%. Moreover, at M1 muscarinic receptor, the “M1 Activity” value is recorded as “+ (activity was measured to be greater than 10.0 μM)” and the Emax was in the range of 25 to 100%.
Consider `CNC(=O)C1=CC2(CCN(CCC3CCSCC3)CC2)c2ccccc21` [compound 9], for which, on M4 muscarinic receptor, the “M4 Activity” value was “+ (activity was measured to be greater than 10.0 μM)” and the Emax is less than 25%. Besides, at M1 muscarinic receptor, the “M1 Activity” value is “+ (activity was measured to be greater than 10.0 μM)” and the Emax lay in the range of 25 to 100%.
Turning to `CCC(CC)NC(=O)C1=CC2(CCN(C3CCN(C(C)=O)CC3)CC2)c2ccccc21` [compound 10], at M4 muscarinic receptor, the “M4 Activity” value was “+ (activity was measured to be greater than 10.0 μM)” and the Emax is less than 25%. In addition, on M1 muscarinic receptor, the “M1 Activity” value is on record as “+ (activity was measured to be greater than 10.0 μM)” and the Emax was less than 25%.

The values are drawn from patent US7858790B2, “Modulators of muscarinic receptors” (Vertex Pharmaceuticals Incorporated, priority 2006, dated 2010).
